In BigSolDB 2.1:

CCCCCCCCCCCC(=O)O
Conditions | solubility (mole fraction)
in 1-bromopropane, 280.6 K | 0.0756
in 1-bromopropane, 283.8 K | 0.0997
in 1-bromopropane, 287.8 K | 0.15
in 1-bromopropane, 289.9 K | 0.185
in 1-bromopropane, 293.1 K | 0.239
in 1-bromopropane, 295.2 K | 0.275
in 1-bromopropane, 298.8 K | 0.34
in 1-bromopropane, 301.4 K | 0.404
in 1-bromopropane, 304.3 K | 0.473
in 1-bromopropane, 305.3 K | 0.528
in 1-bromopropane, 307.3 K | 0.573
in 1-bromopropane, 309.3 K | 0.645
in 1-bromopropane, 310.5 K | 0.709
in 1-bromopropane, 312.5 K | 0.775
in 1-bromopropane, 313.8 K | 0.859
in acetone, 286.6 K | 0.0794
in acetone, 290.1 K | 0.107
in acetone, 293.1 K | 0.146
in acetone, 293.3 K | 0.146
in acetone, 298 K | 0.224
in acetone, 299.9 K | 0.283
in acetone, 301.9 K | 0.34
in acetone, 303.4 K | 0.389
in acetone, 305.1 K | 0.449
in acetone, 306.7 K | 0.512
in acetone, 308.1 K | 0.568
in acetone, 310.9 K | 0.678
in acetone, 312 K | 0.735
in acetone, 313 K | 0.795
in acetone, 314.4 K | 0.857
in acetone, 315.2 K | 0.895
in isopropanol, 279.2 K | 0.0797
in isopropanol, 282.7 K | 0.104
in isopropanol, 285.9 K | 0.13
in isopropanol, 289.1 K | 0.164
in isopropanol, 293.1 K | 0.22
in isopropanol, 297.1 K | 0.283
in isopropanol, 301 K | 0.361
in isopropanol, 303 K | 0.409
in isopropanol, 304.4 K | 0.458
in isopropanol, 306.1 K | 0.513
in isopropanol, 308.1 K | 0.568
in isopropanol, 309.8 K | 0.648
in isopropanol, 311.2 K | 0.712
in isopropanol, 312.6 K | 0.777
in isopropanol, 314.1 K | 0.842
in isopropanol, 314.9 K | 0.896
in n-hexane, 279.9 K | 0.0292
in n-hexane, 282.5 K | 0.0408
in n-hexane, 283.6 K | 0.0502
in n-hexane, 286.9 K | 0.0736
in n-hexane, 289.7 K | 0.108
in n-hexane, 291.7 K | 0.134
in n-hexane, 293.9 K | 0.171
in n-hexane, 296.4 K | 0.223
in n-hexane, 297.5 K | 0.252
in n-hexane, 300.1 K | 0.322
in n-hexane, 301.8 K | 0.38
in n-hexane, 303.8 K | 0.442
in n-hexane, 305.9 K | 0.519
in n-hexane, 308 K | 0.593
in n-hexane, 311 K | 0.711
in n-hexane, 312.5 K | 0.777
in n-hexane, 314.2 K | 0.858
in n-propanol, 287.1 K | 0.13
in n-propanol, 289.6 K | 0.153
in n-propanol, 292.8 K | 0.192
in n-propanol, 295.1 K | 0.225
in n-propanol, 297.9 K | 0.275
in n-propanol, 299.9 K | 0.318
in n-propanol, 301.5 K | 0.353
in n-propanol, 303.5 K | 0.406
in n-propanol, 304.7 K | 0.44
in n-propanol, 306.5 K | 0.509
in n-propanol, 307.4 K | 0.541
in n-propanol, 308.7 K | 0.597
in n-propanol, 309.9 K | 0.644
in n-propanol, 310.7 K | 0.69
in n-propanol, 312.1 K | 0.749
in n-propanol, 313.4 K | 0.818
in n-propanol, 314.2 K | 0.873
in trichloroethylene, 282 K | 0.144
in trichloroethylene, 283.1 K | 0.157
in trichloroethylene, 284.6 K | 0.171
in trichloroethylene, 288.4 K | 0.216
in trichloroethylene, 291 K | 0.258
in trichloroethylene, 293 K | 0.295
in trichloroethylene, 296 K | 0.337
in trichloroethylene, 298.2 K | 0.389
in trichloroethylene, 301.2 K | 0.441
in trichloroethylene, 303.3 K | 0.516
in trichloroethylene, 306.7 K | 0.591
in trichloroethylene, 308.6 K | 0.666
in trichloroethylene, 310.5 K | 0.725
in trichloroethylene, 312.5 K | 0.806
in trichloroethylene, 313.5 K | 0.855
